`COc1ccc(C(=O)C#CC(=O)O)c(OC)c1OC` showed a melting point of 119 to 121 °C.
`COc1ccc(-n2cnc(-c3cc(OC)c(OC)c(OC)c3)c2-c2ccc(OC)c(O)c2)cc1` showed a melting point of 65 to 67 °C.
`CC1Cc2cc(Cl)c(Cl)cc2C(c2ccc([N+](=O)[O-])cc2)O1` (centres undefined) showed a melting point of 189 to 191 °C.
For `Oc1cccc2cc(-c3ccc(OCCN4CCCC4)cc3)sc12`, the melting point was 180 to 183 °C.
In the case of `CC[C@H](CC[N+](=O)[O-])C(=O)N[C@@H](Cc1ccccc1)C(=O)OC`, the melting point is reported as 86.2 to 87.8 °C.
For `Cc1cc(SC2=C(O)CC(CCC3CCCO3)(C(C)C)OC2=O)c(C(C)(C)C)cc1CO` (centres undefined), the melting point was 57 to 59 °C.
For `CC(=O)NC1=C(C#N)C(c2cccc([N+](=O)[O-])c2)=C2C=Cc3ccccc3C2O1` (centres undefined), the melting point was 234 to 236 °C.
For `COC(=O)c1cc(-c2ccc(C)c(F)c2)n[nH]c1=O`, the melting point was 206 to 207 °C.
`N#Cc1ccc(NCC(=O)N2CCC(Cc3ccc(F)cc3)CC2)cc1` gave a melting point of 204 to 206 °C.
Work on `Cc1nc(C(=O)NN)c2n1-c1ccc(Cl)cc1C(c1ccccc1F)=NC2` yielded a melting point of 235 to 237 °C.
`CCN(CC)CC(O)CONC(=O)NC(C)(C)C` (centres undefined) gave a melting point of 58 to 61 °C.
`COc1ccc2cc(C3CCN(C[C@H](O)COc4cccc5sc(-c6ncc(C)o6)cc45)CC3)ccc2c1` showed a melting point of 163 to 166 °C.
`CC(=O)Nc1nc2c(s1)CCN(C(=O)OCc1ccccc1)CC2` gave a melting point of 126 to 128 °C.
In the case of `CCCCC(Br)C(=O)c1cc(NC(C)=O)ccc1O` (centres undefined), the melting point is reported as 137 to 138 °C.
Molecule `CC1Cc2cc(S(=O)(=O)n3cc(-c4ccccc4)[nH]c3=O)ccc2N1C(=O)c1ccc([N+](=O)[O-])cc1` (centres undefined) has a melting point of 168 to 172 °C.
Work on `N#Cc1ccc(S(=O)(=O)c2ccc(O)cn2)cc1` yielded a melting point of 225 to 226 °C.
`CC(=O)N=C(N(C)C(C)=O)N(C)C1CCN(c2nc3ccccc3n2Cc2ccc(F)cc2)CC1` gave a melting point of 176 °C.
Work on `CC(C)CC(=O)Nc1ccccc1` yielded a melting point of 67 to 68 °C.
In the case of `O=C(COc1ccc(Cl)cc1Cl)Nc1ccnn1-c1c(Cl)cc(C(F)(F)F)cc1Cl`, the melting point is reported as 167 to 180 °C.
Molecule `O=C(CN1C(=O)C(NC(=O)n2ccnc2)N=C(c2ccccc2F)c2ccccc21)N1CC2CCC(CC2)C1` (racemic) has a melting point of 235 to 237 °C.
With `CCOC(=O)C(CO)C(C)c1cccnc1` (centres undefined) the melting point was 128 to 131 °C.
Work on `C=C(C)c1ccc(C(C)(C)OOC(C)(C)c2ccccc2)cc1` yielded a melting point of 40 °C.
With `CC(C)(C)c1cc(OCc2n[nH]c(=O)o2)cc(C(C)(C)C)c1O` the melting point was 138 to 140 °C.
With `CNC(=O)CCCCCc1cccc2cncn12` the melting point was 118 to 122 °C.
For `N#CC(c1ccccc1)c1ccccn1` (racemic), the melting point was 89 °C.
With `Nc1c(NCCCOc2cc(CN3CCCCC3)ccn2)c(=O)c1=O` the melting point was 226 to 228 °C.
For `ClCCOc1ccc(C2=C(c3ccccc3)CCCc3cc(OC4CCCCO4)ccc32)cc1` (centres undefined), the melting point was 153 to 155 °C.
Work on `CC(C)CCN1C(=O)C(NC(=O)Nc2ccccc2)C(=O)Nc2ccccc21` (centres undefined) yielded a melting point of 249 to 250 °C.
`CCOC(=O)c1c(-c2ccccc2C)c2cc3c(cc2[nH]c1=O)CCC3` gave a melting point of 296 to 298 °C.
In the case of `C=CC1C(=O)N(c2ccc(OC)cc2)C1C(=O)OCC` (centres undefined), the melting point is reported as 70 to 72 °C.
With `Cc1ccc(C2OC(CO)C(O)C(O)C2O)cc1Cc1ccc(-c2ccc(F)nc2)s1` (centres undefined) the melting point was 130 to 132 °C.
In the case of `CC(=C1SC(=O)NC1=O)c1ccc(OCCOc2c(-c3ccc(F)cc3)n(C)c3ccc(F)cc3c2=O)cc1`, the melting point is reported as 245 to 248 °C.
`CC(C)(C)OC(=O)Nc1ccc(-c2cccc(F)c2F)cc1[N+](=O)[O-]` gave a melting point of 93 °C.
In the case of `Cc1cncc(COc2cccc(C(N)=O)c2)c1`, the melting point is reported as 152 to 154 °C.
`CS(=O)(=O)c1ccccc1C(N)=O` showed a melting point of 149 °C.
Work on `CC(C)c1ccc(N(Cc2ccc(N(C)C)cc2)C(=O)C2CCCc3ccc(O)cc32)cc1` (centres undefined) yielded a melting point of 214 to 217 °C.
Work on `COC(=O)c1ccnc(N2CCN(Cc3ccncc3)C2=O)c1` yielded a melting point of 111 to 113 °C.
With `Cc1ccc(-c2cc(Cl)c3cc(Cl)ccc3n2)cc1` the melting point was 123 to 125 °C.
`FC(F)(F)c1cc(Cl)c(-n2cc(C3CC3(Cl)Cl)nn2)c(Cl)c1` (centres undefined) showed a melting point of 134 to 136 °C.
For `Cn1nc(-c2ncc(Cl)cc2F)c(C=O)c1OC(F)F`, the melting point was 111 to 116 °C.
`CCC1(CC)c2ccccc2-c2ccccc21` gave a melting point of 29 to 30 °C.
With `CCOP(=O)(/C=C/c1cn(-c2ccccc2)nc1OCc1ccc(OCc2nc(-c3ccc(C(=O)OC)cc3)oc2C)c(OC)c1)OCC` the melting point was 129 to 130 °C.
`CCCCCCC(Oc1ccc(C2=CCCCCC2)cc1)C(=O)O` (centres undefined) gave a melting point of 59 to 60 °C.
`Fc1c(F)c(C(F)(F)F)c(F)c(F)c1Nc1nc(Cl)nc(Cl)c1Cl` gave a melting point of 152 to 153 °C.
For `CCCCCc1ccc(C=Cc2cc3sc(C=Cc4ccc(CCCCC)cc4)cc3s2)cc1`, the melting point was 320 °C.
In the case of `COc1cc2c(cc1OC)OCC(=O)C2`, the melting point is reported as 126 to 130 °C.
`NC(=O)CN1C[C@@H](c2ccccc2)CC1=O` showed a melting point of 108 °C.
Work on `COc1ccc(/C=C/S(=O)(=O)CS(=O)(=O)/C=C/c2ccc(OC)c([N+](=O)[O-])c2)cc1[N+](=O)[O-]` yielded a melting point of 263 to 265 °C.
Molecule `CCn1c2ccccc2c2cc(C=Cc3ccc([N+](=O)[O-])cc3)ccc21` has a melting point of 168 °C.
